Experimental data taken from ChEMBL document CHEMBL5665443, “Enzyme Inhibitor Single Concentration assay results for EUbOPEN Chemogenomics Library” (2024).

Assays:
[1] = target: Methyl-CpG-binding domain protein 4 (Homo sapiens) (UniProt O95243); conditions: Compound Concentration 10.0 uM;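 further: MBD4 activity read as fluorescence at 594 nm from cleavage and release of a quenched duplex DNA oligonucleotide, with APE1 coupled to incise the strand and raise turnover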
Description: Inhibition of MBD4 by quantifying inhibition of MBD4-mediated cleavage and dissociation of quenched duplex DNA oligonucleotides, measured as fluorescence at 594 nm. To generate a functional strand incision and increase turn-over this assay is coupled to APE1.

[2] = target: T1, Adenine DNA glycosylase (Homo sapiens) (UniProt Q9UIF7); conditions: Compound Concentration 10.0 uM, Hit No;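 further: human MUTYH activity read as 594 nm fluorescence from cleavage and release of a quenched DNA duplex, coupled with APE1 for strand incision, lower signal meaning inhibition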
T1 sequence (whole entry): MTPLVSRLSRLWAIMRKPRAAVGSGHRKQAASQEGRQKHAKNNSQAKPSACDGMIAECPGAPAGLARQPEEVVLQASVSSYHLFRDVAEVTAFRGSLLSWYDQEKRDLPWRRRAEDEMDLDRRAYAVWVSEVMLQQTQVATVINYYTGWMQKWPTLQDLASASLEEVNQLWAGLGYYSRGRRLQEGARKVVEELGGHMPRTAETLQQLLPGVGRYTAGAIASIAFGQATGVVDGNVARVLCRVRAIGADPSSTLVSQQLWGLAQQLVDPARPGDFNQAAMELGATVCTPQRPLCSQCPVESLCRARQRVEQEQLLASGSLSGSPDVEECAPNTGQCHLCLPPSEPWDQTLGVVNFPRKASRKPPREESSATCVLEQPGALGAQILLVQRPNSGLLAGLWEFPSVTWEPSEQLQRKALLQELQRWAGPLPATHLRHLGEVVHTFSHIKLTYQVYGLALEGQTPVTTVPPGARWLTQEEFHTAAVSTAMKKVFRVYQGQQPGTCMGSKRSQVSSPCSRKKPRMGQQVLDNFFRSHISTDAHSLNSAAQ
Description: Inhibition of MUTYH by quantifying inhibition of MUTYH-mediated cleavage and dissociation of quenched duplex DNA oligonucleotides, measured as fluorescence at 594 nm. To generate a functional strand incision and increase turn-over this assay is coupled to APE1.

[3] = target: Uracil-DNA glycosylase (Homo sapiens) (UniProt P13051); conditions: Compound Concentration 10.0 uM, Hit No;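 further: UNG excision on a quenched double-stranded DNA oligo probe, with APE1 added for strand incision and turnover, read as fluorescence at 594 nm as strands separate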
Uracil-DNA glycosylase (Homo sapiens), sequence (P13051 whole entry): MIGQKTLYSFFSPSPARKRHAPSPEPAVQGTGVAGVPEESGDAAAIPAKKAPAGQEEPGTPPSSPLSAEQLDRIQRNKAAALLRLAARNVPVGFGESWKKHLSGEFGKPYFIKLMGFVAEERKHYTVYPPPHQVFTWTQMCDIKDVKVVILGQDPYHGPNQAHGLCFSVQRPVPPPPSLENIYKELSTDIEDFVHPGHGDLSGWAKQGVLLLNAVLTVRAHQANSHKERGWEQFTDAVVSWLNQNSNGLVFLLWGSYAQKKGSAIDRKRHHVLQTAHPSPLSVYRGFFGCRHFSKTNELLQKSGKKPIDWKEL
Description: Inhibition of UNG by quantifying inhibition of UNG-mediated cleavage and dissociation of quenched duplex DNA oligonucleotides, measured as fluorescence at 594 nm. To generate a functional strand incision and increase turn-over this assay is coupled to APE1.

[4] = target: G/T mismatch-specific thymine DNA glycosylase (Homo sapiens) (UniProt Q13569); conditions: Compound Concentration 10.0 uM;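 further: human TDG cleavage of quenched duplex DNA oligonucleotides coupled to APE1, strand release read as fluorescence at 594 nm, inhibition of TDG activity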
G/T mismatch-specific thymine DNA glycosylase (Homo sapiens), sequence (Q13569 whole entry): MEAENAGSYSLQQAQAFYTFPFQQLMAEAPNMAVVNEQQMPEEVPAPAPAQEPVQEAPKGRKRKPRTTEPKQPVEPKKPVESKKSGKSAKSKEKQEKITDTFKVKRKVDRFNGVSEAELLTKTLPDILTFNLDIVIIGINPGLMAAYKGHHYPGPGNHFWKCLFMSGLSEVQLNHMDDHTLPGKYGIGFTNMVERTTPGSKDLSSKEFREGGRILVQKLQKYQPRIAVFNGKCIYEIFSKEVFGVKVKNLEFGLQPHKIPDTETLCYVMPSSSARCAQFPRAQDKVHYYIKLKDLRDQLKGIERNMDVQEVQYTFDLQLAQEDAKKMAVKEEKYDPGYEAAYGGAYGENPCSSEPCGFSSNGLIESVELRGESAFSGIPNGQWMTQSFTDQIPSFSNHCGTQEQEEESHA
Description: Inhibition of TDG by quantifying inhibition of TDG-mediated cleavage and dissociation of quenched duplex DNA oligonucleotides, measured as fluorescence at 594 nm. To generate a functional strand incision and increase turn-over this assay is coupled to APE1.

[5] = target: Endonuclease 8-like 1 (Homo sapiens) (UniProt Q96FI4); conditions: Compound Concentration 10.0 uM, Hit No;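 further: fluorescence at 594 nm from quenched duplex DNA oligonucleotides released by NEIL1 cleavage and strand separation, reported as reduction of this enzyme activity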
Endonuclease 8-like 1 (Homo sapiens), sequence (Q96FI4 whole entry): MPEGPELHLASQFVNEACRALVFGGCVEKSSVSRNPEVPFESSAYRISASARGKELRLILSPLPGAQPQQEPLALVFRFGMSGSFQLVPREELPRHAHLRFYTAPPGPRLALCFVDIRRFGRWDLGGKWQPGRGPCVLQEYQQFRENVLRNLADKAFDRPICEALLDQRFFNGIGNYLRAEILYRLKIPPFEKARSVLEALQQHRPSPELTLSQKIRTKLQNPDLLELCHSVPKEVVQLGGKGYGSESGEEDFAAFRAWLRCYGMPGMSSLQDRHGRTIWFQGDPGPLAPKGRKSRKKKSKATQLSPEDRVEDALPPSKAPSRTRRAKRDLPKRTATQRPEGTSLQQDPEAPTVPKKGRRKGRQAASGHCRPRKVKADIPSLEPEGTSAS
Description: Inhibition of NEIL1 by quantifying inhibition of NEIL1-mediated cleavage and dissociation of quenched duplex DNA oligonucleotides, measured as fluorescence at 594 nm.

[6] = target: T2, Single-strand selective monofunctional uracil DNA glycosylase (Homo sapiens) (UniProt Q53HV7); conditions: Compound Concentration 10.0 uM, Hit No;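 further: enzymatic SMUG1 assay coupled with APE1, reading fluorescence at 594 nm released when a quenched double-stranded DNA oligonucleotide substrate is cleaved and separated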
T2 sequence (whole entry): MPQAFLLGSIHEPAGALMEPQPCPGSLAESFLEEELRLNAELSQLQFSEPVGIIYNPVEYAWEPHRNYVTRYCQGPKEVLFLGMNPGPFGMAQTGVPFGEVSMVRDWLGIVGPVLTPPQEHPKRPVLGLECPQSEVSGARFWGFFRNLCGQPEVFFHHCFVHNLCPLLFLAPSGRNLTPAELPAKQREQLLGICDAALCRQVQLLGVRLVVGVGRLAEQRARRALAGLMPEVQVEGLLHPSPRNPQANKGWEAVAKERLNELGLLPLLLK
Description: Inhibition of SMUG1 by quantifying inhibition of SMUG1-mediated cleavage and dissociation of quenched duplex DNA oligonucleotides, measured as fluorescence at 594 nm. To generate a functional strand incision and increase turn-over this assay is coupled to APE1.

[7] = target: T3, Endonuclease 8-like 2 (Homo sapiens) (UniProt Q969S2); conditions: Compound Concentration 10.0 uM, Hit No;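 further: fluorescence at 594 nm reports NEIL2 cutting and release of a quenched double-stranded DNA oligo substrate, reduced signal read as inhibition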
T3 sequence (whole entry): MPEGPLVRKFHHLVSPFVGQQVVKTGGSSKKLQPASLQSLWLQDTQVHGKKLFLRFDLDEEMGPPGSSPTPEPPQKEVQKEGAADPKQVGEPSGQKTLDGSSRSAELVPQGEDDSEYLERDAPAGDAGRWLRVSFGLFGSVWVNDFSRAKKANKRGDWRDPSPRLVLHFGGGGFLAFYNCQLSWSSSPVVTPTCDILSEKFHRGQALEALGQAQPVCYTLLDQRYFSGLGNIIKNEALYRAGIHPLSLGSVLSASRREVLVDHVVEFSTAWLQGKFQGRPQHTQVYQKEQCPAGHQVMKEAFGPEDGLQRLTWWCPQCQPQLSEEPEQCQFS
Description: Inhibition of NEIL2 by quantifying inhibition of NEIL2-mediated cleavage and dissociation of quenched duplex DNA oligonucleotides, measured as fluorescence at 594 nm.

[8] = target: DNA-3-methyladenine glycosylase (Homo sapiens) (UniProt P29372); conditions: Compound Concentration 10.0 uM;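 further: enzyme assay where MPG cuts a quenched duplex DNA oligonucleotide probe, paired with APE1 for strand incision and turnover, read as fluorescence at 594 nm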
DNA-3-methyladenine glycosylase (Homo sapiens), sequence (P29372 whole entry): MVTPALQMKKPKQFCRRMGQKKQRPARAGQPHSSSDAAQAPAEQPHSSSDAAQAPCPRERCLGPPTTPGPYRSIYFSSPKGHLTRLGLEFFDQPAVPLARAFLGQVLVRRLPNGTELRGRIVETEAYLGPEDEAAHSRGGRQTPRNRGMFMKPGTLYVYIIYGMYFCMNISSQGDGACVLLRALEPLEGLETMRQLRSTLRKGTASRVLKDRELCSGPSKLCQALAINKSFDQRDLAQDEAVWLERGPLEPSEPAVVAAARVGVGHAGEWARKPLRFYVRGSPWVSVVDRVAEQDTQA
Description: Inhibition of MPG by quantifying inhibition of MPG-mediated cleavage and dissociation of quenched duplex DNA oligonucleotides, measured as fluorescence at 594 nm. To generate a functional strand incision and increase turn-over this assay is coupled to APE1.

[9] = target: N-glycosylase/DNA lyase (Homo sapiens) (UniProt O15527); conditions: Compound Concentration 10.0 uM, Hit No;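 further: OGG1 cleavage of a quenched duplex DNA oligonucleotide, coupled to APE1 for strand incision, read as fluorescence at 594 nm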
N-glycosylase/DNA lyase (Homo sapiens), sequence (O15527 whole entry): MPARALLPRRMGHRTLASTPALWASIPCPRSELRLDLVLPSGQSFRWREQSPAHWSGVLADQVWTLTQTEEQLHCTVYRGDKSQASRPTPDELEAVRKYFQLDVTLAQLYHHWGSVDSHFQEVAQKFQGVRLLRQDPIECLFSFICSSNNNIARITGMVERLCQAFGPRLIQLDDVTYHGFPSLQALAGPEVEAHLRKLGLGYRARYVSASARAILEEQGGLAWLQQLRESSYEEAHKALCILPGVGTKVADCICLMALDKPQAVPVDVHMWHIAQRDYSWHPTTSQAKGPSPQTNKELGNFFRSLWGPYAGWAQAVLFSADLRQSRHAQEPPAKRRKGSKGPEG
Description: Inhibition of OGG1 by quantifying inhibition of OGG1-mediated cleavage and dissociation of quenched duplex DNA oligonucleotides, measured as fluorescence at 594 nm. To generate a functional strand incision and increase turn-over this assay is coupled to APE1.

Methyl-CpG-binding domain protein 4 (Homo sapiens), sequence (O95243 whole entry, the tested form may be a part): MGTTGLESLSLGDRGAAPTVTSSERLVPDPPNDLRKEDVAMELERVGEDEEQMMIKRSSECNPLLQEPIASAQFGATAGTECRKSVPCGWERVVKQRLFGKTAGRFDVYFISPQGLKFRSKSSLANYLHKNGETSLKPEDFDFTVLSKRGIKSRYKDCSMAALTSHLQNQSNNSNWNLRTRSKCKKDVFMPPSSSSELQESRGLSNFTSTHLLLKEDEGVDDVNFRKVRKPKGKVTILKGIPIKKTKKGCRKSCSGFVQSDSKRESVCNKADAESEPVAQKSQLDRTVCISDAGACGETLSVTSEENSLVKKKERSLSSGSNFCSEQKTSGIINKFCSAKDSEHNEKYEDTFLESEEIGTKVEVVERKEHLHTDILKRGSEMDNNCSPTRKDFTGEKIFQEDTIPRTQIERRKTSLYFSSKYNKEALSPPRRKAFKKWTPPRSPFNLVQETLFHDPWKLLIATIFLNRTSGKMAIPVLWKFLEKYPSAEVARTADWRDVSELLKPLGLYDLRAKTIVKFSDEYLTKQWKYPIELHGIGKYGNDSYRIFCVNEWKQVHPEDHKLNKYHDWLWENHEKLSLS

Row | Compound | inhibition ([1]; Hit No) | inhibition [2] | inhibition [3] | inhibition ([4]; Hit No) | inhibition [5] | inhibition [6] | inhibition [7] | inhibition ([8]; Hit No) | inhibition [9] | inhibition ([1]; Hit Yes) | inhibition ([4]; Hit Yes) | inhibition ([8]; Hit Yes)
1 | Cc1ccccc1C(=O)Nc1ccc(C(=O)N2CCCC(O)c3cc(Cl)ccc32)c(C)c1 (centres undefined) | -1.3% | 12.2% | -8.3% | 18.4% | 6.76% | -8.66% | 1.01% | 0.836% | -1.2% |  |  | 
2 | COCCn1c(C)c(C)s/c1=N\C(=O)C1C(C)(C)C1(C)C | -7.23% | 20.8% | -7.32% | 7.06% | 3.06% | -0.421% | 1.51% | -8.69% | 5.33% |  |  | 
3 | CC(C)NCC(O)COc1ccc(CCOCC2CC2)cc1 (centres undefined) | 4.74% | -5.48% | -7.33% | 21.4% | -5.99% | 5.49% | -0.983% | -1.52% | -0.494% |  |  | 
4 | Cn1c(SCc2ccc(C(C)(C)C)cc2)nc(N)cc1=O | 12.4% | 6.33% | -6.37% | 8.05% | -0.435% | -4.37% | 5.25% | 9.09% | -4.44% |  |  | 
5 | COc1ccc(CNC(=O)c2cc(-c3cncc(Cl)c3)cnc2-c2ccccn2)nc1OC | 0.324% | -1% | -5.71% | 11.4% | -8.51% | -1.29% | 6.5% | -0.668% | -1.43% |  |  | 
6 | O=C(O)CC/C=C\C[C@@H]1CO[C@H](c2ccccc2Cl)O[C@@H]1c1ccccc1O | 0.092% | 8.47% | -7.83% | 13.8% | -2.87% | 0.5% | 0.265% | 4.5% | -7.71% |  |  | 
7 | CCCCc1oc2ccccc2c1C(=O)c1cc(I)c(OCCN(CC)CC)c(I)c1 | 28.2% | -0.487% | 1.42% | 30.6% |  | 15.3% | -6.36% | 5.3% | 0.672% |  |  | 
8 | C/C(=N\NC(=O)[C@@H]1C(=O)NC[C@H]1c1ccccc1)c1cccc(Br)c1 | 0.963% | 11% | -1.98% | 17.2% | -1.98% | 9.22% | 6.5% | -1.9% | -0.141% |  |  | 
9 | O=C(Nc1ccc(Cl)nc1)c1ccc(Cl)cc1 | 19.3% | 26.6% | 1.37% | 21.2% | 6.68% | 3.71% | 5.25% | 18.7% | 6.76% |  |  | 
10 | Cc1noc(-c2ccc(-c3ccc(CC(=O)O)cc3)cc2)c1NC(=O)O[C@H](C)c1ccccc1Cl | 45.9% | 53.1% | -9.06% | 43.6% | -3.47% | -3.86% | -4.48% | 10.4% | 10.8% |  |  | 
11 | CC(C)(C#Cc1ccc(NC(=O)COc2ccccc2C(=O)c2ccccc2)c(Cl)c1)C(=O)O | 83.7% | 16.2% | 7.11% | 61.6% | -9.68% | 12.2% | 15.6% | 115% | 49.5% |  |  | 
12 | CSc1ccc(C(=O)N[C@@H]2CCCC[C@@H]2NC(=O)CNC(=O)c2cc(C(F)(F)F)ccc2NC(=O)NC(C)C)cc1 | 13.3% | 2.07% | -0.695% | 20.7% | 0.537% | 0.0151% | 14.5% | -1.67% | -0.224% |  |  | 
13 | CC(C1CC2CCC1C2)n1c(S)nnc1-c1ccco1 (centres undefined) | 23.6% | 19.9% | -6.26% | 22.6% | 1.64% | 13.7% | 9.84% | 19.5% | -7.6% |  |  | 
14 | CCOC(=O)c1cc(C#N)c(N2CCC(C(=O)NS(=O)(=O)Cc3ccccc3)CC2)nc1C | 12% | 13.3% | -6.55% | 22.6% | -0.649% | 7.04% | -3.73% | 0.797% | 4.63% |  |  | 
15 | CCCCCNC(=N)N/N=C/c1c[nH]c2ccc(OC)cc12 |  | 114% | -3.68% |  | -9.54% | -3.67% | 20.7% |  | 2.43% | 114% | 103% | 108%
16 | CCc1ccc(OCc2ccccc2C(=O)Nc2ccc3nc(C)cc(N)c3c2)cc1 | 43.2% | 77.8% | -2.29% |  | -4.06% | -3.13% | 16.5% |  | 12.5% |  | 82.5% | 71.5%
17 | CCOc1nc2cccc(C(=O)O)c2n1Cc1ccc(-c2ccccc2-c2nnn[nH]2)cc1 | 1.2% | 2.84% | -8.46% | 6.47% | 2.02% | -0.0333% | 7% | -3.68% | 0.813% |  |  | 
18 | CC(Cc1ccc(O)c(O)c1)C(C)Cc1ccc(O)c(O)c1 (centres undefined) | 58.5% | 35.6% | 1.91% | 40% | 12.4% | -6.33% | 0.265% | 19.4% | 28.8% |  |  | 
19 | Cc1nnc2n1-c1sc(CCC(=O)N3CCOCC3)cc1C(c1ccccc1Cl)=NC2 | -1.19% | 16.7% | -6.5% | 14.6% | 5.28% | -7.88% | 7.25% | -4.33% | 0.211% |  |  | 
20 | COc1ccccc1/C=N/NC(=O)COc1ccc(Cl)cc1C | 18.4% | 10.8% | -5.19% | 18.2% | 8.6% | 14% | -3.15% | 9.76% | 2.66% |  |  | 
21 | CC[C@@H]1C(=O)N(C)c2cnc(Nc3ccc(C(=O)NC4CCN(C)CC4)cc3OC)nc2N1C1CCCC1 | 33% | 38.1% | 13.3% | 69.8% | 2.78% | 23.4% |  | 7.81% | -5.59% |  |  | 
22 | COc1ccc(S(=O)(=O)N2c3ccc(Cl)cc3[C@](O)(c3ccccc3Cl)[C@@H]2C(=O)N2CCC[C@H]2C(N)=O)cc1OC | -7.23% | 28.9% | -8.37% | 10.6% | -2.72% | -8.03% | -0.733% | 8.66% | -5.95% |  |  | 
23 | Cc1cc(-c2ccc3c(c2)CC[C@H]3N2CC3(CCN(C(=O)Cc4cn5cc(C)sc5n4)CC3)C2)ncn1 | 2.75% | 0.491% | -6.41% | 6.67% | -1.18% | -0.24% |  | -2.4% | -7.69% |  |  | 
